Measurements: US20100152188A1, “Novel Heterocyclic Compounds” (priority 2005, published 2010)
Where two headings read alike, the source gives them in different places.

What was measured:
HCT116 = test: Anti-cancer screen (MTT), HCT116; assay type: cell-based; conditions: Homo sapiens, HCT-116, 48 hours with compound, tested at 0.01-100 µM
Method in brief: (§1)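 Cells plated at 5000/well in DMEM with 10% FBS, then treated 48 h with compound at 0.01, 0.1, 1, 10 and 100 μM in triplicate. MTT for 3 h, formazan in DMSO, absorbance at 570 nm. GI50, TGI and LC50 from % growth relative to control and time-zero wells.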

HDAC = HDAC inhibition; assay type: biochemical; conditions: for HDAC Inhibition 1 μM: compound at 1 μM; for HDAC Inhibition 10 μM: compound at 10 μM
MDAMB-231/U 251 = test: Anti-cancer screen (MTT), MDAMB-231/U 251; assay type: cell-based; conditions: for CC50: read-out: MDAMB-231/U 251 LC50
Method in brief: as §1

NCIH460 = test: Anti-cancer screen (MTT), NCIH460; assay type: cell-based; conditions: Homo sapiens, NCI-H460, 48 hours with compound, tested at 0.01-100 µM
Method in brief: as §1

[1] = tested on: NCIH460, HCT116, MDAMB-231/U 251; test: Anti-cancer screen, mean GI50 over the cell lines; assay type: cell-based; conditions: in µM
Method in brief: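 HCT116, NCIH460 and U251 cells (5000/well) were seeded for 24 h, then exposed in triplicate to 0.01, 0.1, 1, 10 and 100 µM final compound for 48 h. Viability was read by MTT (3 h, absorbance 570 nm), and percent growth was calculated against untreated controls and a T0 plate read at compound addition.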

[2] = 48 hours with compound, MTT, tested at 0.01-100 µM

SMILES | GI50 (HCT116) | IC (TGI) (HCT116) | LC50 (concentration giving 50% net cell kill relative to T0) (HCT116) | HDAC Inhibition 1 μM (HDAC) | HDAC Inhibition 10 μM (HDAC) | CC50 (MDAMB-231/U 251; 48 h) | GI50 (MDAMB-231/U 251; [2]) | IC (TGI) (MDAMB-231/U 251; [2]) | GI50 (NCIH460) | IC (TGI) (NCIH460) | LC50 (NCIH460) | Mean GI50 [1] | IC50 (HDAC) | CC50 (HCT116; read-out: HCT116 LC50) | CC50 (MDAMB-231/U 251; [2])
O=C(CCCCNC(=O)Cc1csc(NC(=O)OCc2nc3ccccc3s2)n1)NO [Example 93, 1,3-Benzothiazol-2-ylmethyl[4-(2-{[5-(hydroxyamino)-5-oxopentyl]amino}-2-oxoethyl)-1,3-thiazol-2-yl]carbamate] | 40 µM | 88 µM | > 100 µM | 26.26 | 76.23 | > 100 µM | 7 µM | 55 µM | 50 µM | > 100 µM | > 100 µM | 32.3 | – | – | –
O=C(NCc1ccc(C(=O)Nc2nnc(C3CC3)s2)cc1)OCc1nc2ccccc2s1 [Example 67, 1,3-Benzothiazol-2-ylmethyl(4-{[(5-cyclopropyl-1,3,4-thiadiazol-2-yl)amino]carbonyl}benzyl)carbamate] | 1.8 µM | 67 µM | > 100 µM | 12.17 | 11.64 | > 100 µM | 3.5 µM | 9 µM | 3.5 µM | 9.5 µM | > 100 µM | 2.93 | – | – | –
O=C(NCc1ccc(C(=O)NO)cc1)OCc1nccs1 [Example 31, 1,3-Thiazol-2-ylmethyl{4-[(hydroxyamino)carbonyl]benzyl}carbamate] | 0.02 µM | 0.97 µM | 39 µM | 82.6 | 87.4 | > 100 µM | 32 µM | > 100 µM | 0.02 µM | 0.9 µM | 92 µM | 10.7 | 0.13 µM | – | –
O=C(Cc1csc(NC(=O)OCc2cccnc2)n1)NO [Example 1, pyridin-3-ylmethyl{4-[2-(hydroxyamino)-2-oxoethyl]-1,3-thiazol-2-yl}carbamate] | 0.25 µM | 4 µM | > 100 µM | 1.3 | 31.5 | > 100 µM | 1 µM | > 100 µM | 0.01 µM | 0.5 µM | > 100 µM | 0.4 | – | – | –
COC(=O)ONC(=O)c1ccc(CNC(=O)OCc2cccs2)cc1 [Example 84, 2-Thienylmethyl[4-({[(methoxycarbonyl)oxy]amino}carbonyl)benzyl]carbamate] | > 100 µM | > 100 µM | > 100 µM | 20.20 | 61.74 | > 100 µM | 54 µM | > 100 µM | 81 µM | > 100 µM | > 100 µM | >100 | – | – | –
O=C(NCc1ccc(C(=O)Nc2nnc(C(F)(F)F)s2)cc1)OCc1cccs1 [Example 59, 2-Thienylmethyl[4-({[5-(trifluoromethyl)-1,3,4-thiadiazol-2-yl]amino}carbonyl)benzyl]carbamate] | > 100 µM | > 100 µM | > 100 µM | 14.41 | – | > 100 µM | 74 µM | > 100 µM | 53 µM | 95 µM | > 100 µM | 63.5 | – | – | –
O=C(Cc1csc(NC(=O)OCc2ccncc2)n1)NOCc1ccccc1 [Example 25, Pyridin-4-ylmethyl(4-{2-[(benzyloxy)amino]-2-oxoethyl}-1,3-thiazol-2-yl)carbamate] | 65 µM | > 100 µM | > 100 µM | −0.29 | 6.62 | > 100 µM | 85 µM | > 100 µM | 92 µM | > 100 µM | > 100 µM | 80.67 | – | – | –
O=C(Nc1nc(CC(=O)N2CCCCC2)cs1)OCc1cccnc1 [Example 12, Pyridin-3-ylmethyl[4-(2-oxo-2-piperidin-1-ylethyl)-1,3-thiazol-2-yl]carbamate] | > 100 µM | > 100 µM | > 100 µM | – | 10.83 | > 100 µM | 50 µM | > 100 µM | 50 µM | 100 µM | > 100 µM | 50 | – | – | –
O=C(Cc1csc(NC(=O)OCc2cc(Br)cs2)n1)NO [Example 7, (4-Bromo-2-thienyl)methyl{4-[2-(hydroxyamino)-2-oxoethyl]-1,3-thiazol-2-yl}carbamate] | 25 µM | 80 µM | – | 7.07 | 46.41 | – | 15 µM | 74 µM | 10 µM | 70 µM | > 100 µM | 16.7 | – | > 100 µM | > 100 µM
O=C(NCc1ccc(C(=O)N2CCN(c3ncccn3)CC2)cc1)OCc1nccs1 [Example 68, 1,3-thiazol-2-ylmethyl{4-[(4-pyrimidin-2-ylpiperazin-1-yl)carbonyl]benzyl}carbamate] | 9 µM | > 100 µM | > 100 µM | 11.14 | 5.80 | > 100 µM | 0.2 µM | 21 µM | 33 µM | > 100 µM | > 100 µM | 14.1 | – | – | –
O=C(Cc1csc(NC(=O)OCc2ccsc2)n1)NO [Example 3, 3-Thienylmethyl{4-[2-(hydroxyamino)-2-oxoethyl]-1,3-thiazol-2-yl}carbamate] | > 100 µM | > 100 µM | > 100 µM | −4.03 | 22.89 | > 100 µM | 32 µM | > 100 µM | 30 µM | > 100 µM | > 100 µM | 31 | – | – | –
O=C(Cc1csc(NC(=O)OCc2cccs2)n1)NO [Example 2, 2-Thienylmethyl{4-[2-(hydroxyamino)-2-oxoethyl]-1,3-thiazol-2-yl}carbamate] | > 100 µM | > 100 µM | > 100 µM | 0.8 | 22.42 | > 100 µM | > 100 µM | > 100 µM | > 100 µM | > 100 µM | > 100 µM | >100 | – | – | –
CONC(=O)c1ccc(CNC(=O)OCc2cccs2)cc1 [Example 43, 2-Thienylmethyl{4-[(methoxyamino)carbonyl]benzyl}carbamate] | > 100 µM | > 100 µM | > 100 µM | 1.9 | 8.10 | > 100 µM | > 100 µM | > 100 µM | > 100 µM | > 100 µM | > 100 µM | >100 | – | – | –
Nc1ccccc1NC(=O)Cc1csc(NC(=O)OCc2nc3ccccc3s2)n1 [Example 21, 1,3-Benzothiazol-2-ylmethyl(4-{2-[(2-aminophenyl)amino]-2-oxoethyl}-1,3-thiazol-2-yl)carbamate] | 8 µM | > 100 µM | > 100 µM | 4.41 | 0.57 | > 100 µM | 4 µM | 9 µM | 15 µM | > 100 µM | > 100 µM | 9 | – | – | –
O=C(NCc1ccc(C(=O)N2CCC(N3CCCCC3)CC2)cc1)OCC1COc2ccccc2O1 (centres unmarked) [Example 60, 2,3-Dihydro-1,4-benzodioxin-2-ylmethyl[{4-(piperidinopiperidin-1-yl)carbonyl}benzyl]carbamate] | 65 µM | > 100 µM | > 100 µM | 1.4 | – | > 100 µM | > 100 µM | > 100 µM | 7 µM | 83 µM | > 100 µM | 36 | – | – | –
O=C(CCCCCNC(=O)c1ccc(CNC(=O)OCc2cccs2)cc1)NO [Example 102, 2-Thienylmethyl[4-({[6-(hydroxyamino)-6-oxohexyl]amino}carbonyl)benzyl]carbamate] | 4.8 µM | 10 µM | > 100 µM | 79.08 | 85.52 | 60 µM | 4.8 µM | 9.5 µM | 5 µM | 9.5 µM | 100 µM | 4.9 | 0.25 µM | – | –
